Laboratory results reported in patent US8835466B2, “Synthesis and uses of pyroglutamic acid derivatives” (Prodimed, S.A., priority 2006, dated 2014).

Legend:
[1] = test system: KLN 205 cells (lung cell carcinoma); experiment: Effect of 9d in combination with Cisplatin on tumour growth, KLN 205 (Example 11); type: in vivo, DBA/2 mice; conditions: for Tumour surface, overall values (Mean) / Tumour surface, overall values (Median) / Tumour volume, overall values (Mean) / Tumour volume, overall values (Median): Cisplatin 65 μg i.p. days 3, 6, 10, 13, 17, 20
Procedure: This was carried out by measuring two perpendicular diameters (d1/d2) with a calliper. These measures were used to obtain both tumour surface and volume: […] Results were expressed as single values and/or as the mean±SD or median from each experimental group. This assay was made in order to check the effect on in vivo tumour growth in mice challenged with KLN 205 cells. Their effect was compared with the combination of Cisplatin plus 9d and/or placebo. KLN 205 is a lung cell carcinoma originated in DBA/2 mouse strain, and therefore syngeneic in mice with DBA/2 genetic background (Kaneko T and […]. Growth characteristics and drug responses of a murine lung carcinoma in vitro and in vivo. Cancer Res. 38: 2084-2090; 1978). KLN 205 cells (CLS, Eppelheim, Germany) were maintained in vitro by serial passages every 3-4 days. […] Louis, Mo., USA) by seeding 5×10^6 cells onto 75 cm^2 culture flasks. Subcultures were carried out by collecting detached cells after treatment with trypsin-EDTA (Sigma, St. Louis, Mo., USA). Tumour cells, collected from 48 hour cultures, were used as source of KLN 205 cells for the studies described below. […] Tumours were established by subcutaneous inoculation in the right hind flank. Mice (DBA/2) were inoculated with 0.2 mL containing 2×10^5 viable KLN 205 cells. The day of subcutaneous inoculation will be considered Day 0 of the test. A case-control study was performed with treated and control mice in order to determine whether differences between placebo, 9d, Cisplatin or 9d+Cisplatin were present. […] The t-test was chosen for being one of the better known parametrical tests.

[2] = test system: Ehrlich tumour cells (murine mammary adenocarcinoma); experiment: Effect of isomers and BLAS on in vivo tumour growth, Ehrlich tumours (Example 9); set-up: species or system Balb/c mice; conditions: for Tumour surface, overall values (Mean) / Tumour surface, overall values (Median) / Tumour volume, overall values (Mean) / Tumour volume, overall values (Median): 260 ng/mouse i.p. days 6, 7 and 14
From the text: This assay was made in order to compare the effect of each stereoisomer on in vivo tumour growth in mice with the effect of the mixture of all of them challenged with Ehlrich tumours. The same products, equipment, reagents, doses, vehicle and route of administration as in example 8 were used.
Mice were inoculated with Ehrlich tumour cells. It was described as a murine mammary adenocarcinoma. Ehrlich tumour is a murine mammary carcinoma originally raised in an outbred mouse, and therefore it belongs to the so-called non-specific tumours (Subiza J L, Viñuela J E, Rodriguez R, Gil J, Figueredo M A, de la Concha. E G. Development of splenic natural suppressor (NS) cells in Ehrlich tumor bearing mice. Int J Cancer, 44:307 315; 1989). It may grow across histocompatibility barriers and therefore is not mouse strain specific (Carry P J, Prescott D M, Ogilvie G K. Resistance to Ehrlich ascites tumor in a strain of dystrophic mice. Cancer Res., 39:2139-2140; 1979).
Ehrlich cells were maintained in vitro by serial passages every 3-4 days. Cultures were performed with RPMI medium medium (RPMI, 10% foetal calf serum, 2 mM L-glutamine, non essential aminoacids, 1 mM sodium pyruvate, 20 mM HEPES, 80 μg/mL gentamycin; all of them were purchased from Sigma, St. Louis, Mo., USA) by seeding 5×10^6 cells onto 75 cm^2 culture flasks. Tumour cells collected from 48 hour cultures were used as source of cells for the studies described below.
Tumours were established by subcutaneous inoculation in the right hind flank. Mice (Balb/c) were inoculated with 0.2 mL containing 2×10^5 viable Ehrlich cells. The day of subcutaneous inoculation will be considered Day 0 of the test.
Mice were observed daily and the tumour size recorded twice a week. This was carried out by measuring two perpendicular diameters (L/W) with a calliper. These measures were used to obtain both tumour surface and volume: Tumour surface=L×W(mm^2) Tumour volume=L×W^2×½(mm^3)
Results were expressed as single values and/or as the mean±SD or median from each experimental group.
A case-control study was performed with treated and control mice in order to determine whether differences between BLAS or each diferent stereoisomer and administration of placebo were present. […] The U-test of Mann Withney was chosen for being one of the better known non-parametrical tests, anyway, results for this test are equivalent both to those of Wilcoxon's sum of ranges and Kruskal-Wallis two-groups test.

[3] = day 0 after tumour inoculation, 9d 250 ng
[4] = day 10 after tumour inoculation, 9d 250 ng
[5] = day 13 after tumour inoculation, 9d 250 ng
[6] = day 17 after tumour inoculation, 9d 250 ng
[7] = day 20 after tumour inoculation, 9d 250 ng
[8] = day 24 after tumour inoculation, 9d 250 ng
[9] = day 27 after tumour inoculation, 9d 250 ng
[10] = day 31 after tumour inoculation, 9d 250 ng
[11] = day 34 after tumour inoculation, 9d 250 ng
[12] = day 38 after tumour inoculation, 9d 250 ng
[13] = day 13 after tumour inoculation
[14] = day 16 after tumour inoculation
[15] = day 20 after tumour inoculation
[16] = day 23 after tumour inoculation
[17] = day 29 after tumour inoculation
[18] = day 31 after tumour inoculation
[19] = day 35 after tumour inoculation
[20] = day 38 after tumour inoculation

N.N.[Cl][Pt][Cl] [Cisplatin, reference compound]
Inhibition of the in vivo growth of KLN 205 cell, in words ([1]; 9d 250 ng, Cisplatin 65 μg i.p.): inhibit the in vivo growth
Tumour surface, overall values (Mean) [1, 3]: 0 mm^2
Tumour surface, overall values (Median) [1, 3]: 0 mm^2
Tumour volume, overall values (Mean) [1, 3]: 0 mm^3
Tumour volume, overall values (Median) [1, 3]: 0 mm^3
Tumour surface, overall values (Mean) [1, 4]: 4.07 mm^2
Tumour surface, overall values (Median) [1, 4]: 4 mm^2
Tumour volume, overall values (Mean) [1, 4]: 5.1 mm^3
Tumour volume, overall values (Median) [1, 4]: 4 mm^3
Tumour surface, overall values (Mean) [1, 5]: 14.87 mm^2
Tumour surface, overall values (Median) [1, 5]: 16 mm^2
Tumour volume, overall values (Mean) [1, 5]: 31.77 mm^3
Tumour volume, overall values (Median) [1, 5]: 32 mm^3
Tumour surface, overall values (Mean) [1, 6]: 23.93 mm^2
Tumour surface, overall values (Median) [1, 6]: 20 mm^2
Tumour volume, overall values (Mean) [1, 6]: 59.1 mm^3
Tumour volume, overall values (Median) [1, 6]: 40 mm^3
Tumour surface, overall values (Mean) [1, 7]: 39.07 mm^2
Tumour surface, overall values (Median) [1, 7]: 36 mm^2
Tumour volume, overall values (Mean) [1, 7]: 119.07 mm^3
Tumour volume, overall values (Median) [1, 7]: 108 mm^3
Tumour surface, overall values (Mean) [1, 8]: 72.2 mm^2
Tumour surface, overall values (Median) [1, 8]: 72 mm^2
Tumour volume, overall values (Mean) [1, 8]: 285.43 mm^3
Tumour volume, overall values (Median) [1, 8]: 288 mm^3
Tumour surface, overall values (Mean) [1, 9]: 97.07 mm^2
Tumour surface, overall values (Median) [1, 9]: 99 mm^2
Tumour volume, overall values (Mean) [1, 9]: 445.8 mm^3
Tumour volume, overall values (Median) [1, 9]: 445.5 mm^3
Tumour surface, overall values (Mean) [1, 10]: 124.67 mm^2
Tumour surface, overall values (Median) [1, 10]: 120 mm^2
Tumour volume, overall values (Mean) [1, 10]: 637.07 mm^3
Tumour volume, overall values (Median) [1, 10]: 600 mm^3
Tumour surface, overall values (Mean) [1, 11]: 147.93 mm^2
Tumour surface, overall values (Median) [1, 11]: 150 mm^2
Tumour volume, overall values (Mean) [1, 11]: 809.03 mm^3
Tumour volume, overall values (Median) [1, 11]: 800 mm^3
Tumour surface, overall values (Mean) [1, 12]: 185.33 mm^2
Tumour surface, overall values (Median) [1, 12]: 198 mm^2
Tumour volume, overall values (Mean) [1, 12]: 1129.9 mm^3
Tumour volume, overall values (Median) [1, 12]: 1089 mm^3
Differences in KLN 205 tumour growth rate vs. placebo, statistical significance p (t-test) ([1]; either in surface or volume, all days scored after day 20th): < 0.05

Br.N[C@@]1(C[n+]2ccccc2)C[C@H](C(=O)O)NC1=O.[Br-] (single isomer, unassigned; isomer 2) [isomer 2, 3R,5R-1-(3-Amino-5-carboxy-2-oxopyrrolidin-3-ylmethyl)pyridinium bromide hidrobromide]
Inhibition of the in vivo growth of Ehrlich tumour cells, in words ([2]; 260 ng i.p. days 6, 7 and 14): inhibit the in vivo growth
Tumour surface, overall values (Mean) ([2]; day 0 after tumour inoculation): 0 mm^2
Tumour surface, overall values (Median) ([2]; day 0 after tumour inoculation): 0 mm^2
Tumour volume, overall values (Mean) ([2]; day 0 after tumour inoculation): 0 mm^3
Tumour volume, overall values (Median) ([2]; day 0 after tumour inoculation): 0 mm^3
Tumour surface, overall values (Mean) ([2]; day 8 after tumour inoculation): 6.69 mm^2
Tumour surface, overall values (Median) ([2]; day 8 after tumour inoculation): 4 mm^2
Tumour volume, overall values (Mean) ([2]; day 8 after tumour inoculation): 10.97 mm^3
Tumour volume, overall values (Median) ([2]; day 8 after tumour inoculation): 4 mm^3
Tumour surface, overall values (Mean) [2, 13]: 14.81 mm^2
Tumour surface, overall values (Median) [2, 13]: 16 mm^2
Tumour volume, overall values (Mean) [2, 13]: 32.16 mm^3
Tumour volume, overall values (Median) [2, 13]: 32 mm^3
Tumour surface, overall values (Mean) [2, 14]: 20.37 mm^2
Tumour surface, overall values (Median) [2, 14]: 20 mm^2
Tumour volume, overall values (Mean) [2, 14]: 51.87 mm^3
Tumour volume, overall values (Median) [2, 14]: 40 mm^3
Tumour surface, overall values (Mean) [2, 15]: 28.37 mm^2
Tumour surface, overall values (Median) [2, 15]: 27.5 mm^2
Tumour volume, overall values (Mean) [2, 15]: 81.81 mm^3
Tumour volume, overall values (Median) [2, 15]: 68.75 mm^3
Tumour surface, overall values (Mean) [2, 16]: 35.75 mm^2
Tumour surface, overall values (Median) [2, 16]: 33 mm^2
Tumour volume, overall values (Mean) [2, 16]: 113.75 mm^3
Tumour volume, overall values (Median) [2, 16]: 91.5 mm^3
Tumour surface, overall values (Mean) [2, 17]: 46.12 mm^2
Tumour volume, overall values (Mean) [2, 17]: 167 mm^3
Tumour surface, overall values (Mean) [2, 18]: 50.06 mm^2
Tumour surface, overall values (Median) [2, 18]: 45 mm^2
Tumour volume, overall values (Mean) [2, 18]: 191.91 mm^3
Tumour volume, overall values (Median) [2, 18]: 135 mm^3
Tumour surface, overall values (Mean) [2, 19]: 60.25 mm^2
Tumour surface, overall values (Median) [2, 19]: 51 mm^2
Tumour volume, overall values (Mean) [2, 19]: 258.06 mm^3
Tumour volume, overall values (Median) [2, 19]: 153 mm^3
Tumour surface, overall values (Mean) [2, 20]: 75.37 mm^2
Tumour surface, overall values (Median) [2, 20]: 71 mm^2
Tumour volume, overall values (Mean) [2, 20]: 372.5 mm^3
Tumour volume, overall values (Median) [2, 20]: 266.5 mm^3
Differences in Ehrlich tumour growth rate vs. placebo, statistical significance p (Mann-Whitney U test) ([2]; either in surface or volume, all days scored after the day 13th): < 0.05
